According to patent publication US20210024545A1, “SUBSTITUTED DIAZAHETERO-BICYCLIC COMPOUNDS AND THEIR USE” (Bayer Aktiengesellschaft, priority 2016, published 2021):

Legend:
human TASK-1 = human TASK-1 (Homo sapiens, UniProt O14649); assay: Inhibition of recombinant TASK-1 in stably transfected CHO cells, KCl-induced depolarization, voltage-sensitive dye (B-2); assay type: cell-based; design: expressed in transfected cells; host or cells: stably transfected CHO cells; conditions: depolarization induced by 40 mM potassium chloride, some mean values from multiple determinations
Experimental: (§1) B-2. Inhibition of Recombinant TASK-1 and TASK-3 In Vitro
(§2) The investigations on the inhibition of the recombinant TASK-1 and TASK-3 channels were conducted using stably transfected CHO cells. The compounds of the invention were tested here with administration of 40 mM of potassium chloride in the presence of a voltage-sensitive dye using the method described in detail in the following references [Whiteaker et al., Validation of FLIPR membrane potential dye for high-throughput screening of potassium channel modulators, J. Biomol. Screen. 6 (5), 305-312 (2001); Molecular Devices FLIPR Application Note: Measuring membrane potential using the FLIPR® membrane potential assay kit on Fluorometric Imaging Plate Reader (FLIPR®) systems, http://www.moleculardevices.com/reagents-supplies/assay-kits/ion-channels/flipr-membrane-potential-assay-kits]. The activity of the test substances was determined as their ability to inhibit a depolarization induced in the recombinant cells by 40 mM potassium chloride. The concentration which can block half of this depolarization is referred to as IC50).
(§3) Table 2 below lists the IC50 values from this assay determined for individual working examples of the invention (some as mean values from multiple independent individual determinations): […]

human TASK-3 = human TASK-3 (Homo sapiens, UniProt Q9NPC2); assay: Inhibition of recombinant TASK-3 in stably transfected CHO cells, KCl-induced depolarization, voltage-sensitive dye (B-2); assay type: cell-based; design: expressed in transfected cells; host or cells: stably transfected CHO cells; conditions: depolarization induced by 40 mM potassium chloride, some mean values from multiple determinations
Experimental: as §1, §2, §3

Sequence of human TASK-1 (O14649 whole entry): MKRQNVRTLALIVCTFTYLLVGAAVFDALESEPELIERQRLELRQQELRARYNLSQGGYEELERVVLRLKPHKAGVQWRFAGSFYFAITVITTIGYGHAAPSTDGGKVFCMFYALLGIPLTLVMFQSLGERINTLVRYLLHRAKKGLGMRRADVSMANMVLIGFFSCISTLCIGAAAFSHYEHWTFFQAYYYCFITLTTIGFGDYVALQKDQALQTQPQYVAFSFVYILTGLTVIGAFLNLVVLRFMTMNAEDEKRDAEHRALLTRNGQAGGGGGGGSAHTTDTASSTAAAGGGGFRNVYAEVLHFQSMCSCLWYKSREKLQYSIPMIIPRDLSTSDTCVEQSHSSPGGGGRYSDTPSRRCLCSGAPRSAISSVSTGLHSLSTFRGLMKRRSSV
Sequence of human TASK-3 (Q9NPC2 whole entry): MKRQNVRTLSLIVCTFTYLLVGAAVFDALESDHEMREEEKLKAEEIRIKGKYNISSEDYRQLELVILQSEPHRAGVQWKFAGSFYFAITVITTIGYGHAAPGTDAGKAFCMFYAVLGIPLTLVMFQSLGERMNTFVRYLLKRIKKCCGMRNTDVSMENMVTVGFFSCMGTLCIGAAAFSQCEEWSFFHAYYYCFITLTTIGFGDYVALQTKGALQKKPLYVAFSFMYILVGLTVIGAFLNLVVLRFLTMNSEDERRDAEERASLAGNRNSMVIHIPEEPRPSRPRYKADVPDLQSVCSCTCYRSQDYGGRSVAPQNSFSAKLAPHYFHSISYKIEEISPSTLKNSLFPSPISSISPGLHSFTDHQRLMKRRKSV

SMILES	IC50 (human TASK-1) [nM]	IC50 (human TASK-3) [nM]
O=C(c1ccccn1)N1CC2CCC1CN2Cc1c(-c2ccc(Cl)cc2)nc2ccccn12 (single isomer, unassigned) [Example 51]	290	34
COc1ccccc1C(=O)N1CC2CCC(C1)N2Cc1c(-c2ccc(Cl)cc2)nc2ccccn12 [Example 91]	1350	89
COC(=O)N1C2CCC1CN(Cc1c(-c3ccc(Cl)cc3)nc3ccccn13)C2 [Example 184, Methyl 3-{[2-(4-chlorophenyl)imidazo[1,2-a]pyridin-3-yl]methyl}-3,8-diazabicyclo[3.2.1]octane-8-carboxylate]	2900	72
CCN(CC)C(=O)N1C2COCC1CN(Cc1c(-c3ccc(Cl)cc3)nc3ccccn13)C2 [Example 188, 7-{[2-(4-Chlorophenyl)imidazo[1,2-a]pyridin-3-yl]methyl}-N,N-diethyl-3-oxa-7,9-diazabicyclo[3.3.1]nonane-9-carboxamide]	60	5.9
Cc1ccccc1NC(=O)N1C2CCC1CN(Cc1c(-c3ccc(Cl)cc3)nc3ccccn13)C2 [Example 159, 3-{[2-(4-Chlorophenyl)imidazo[1,2-a]pyridin-3-yl]methyl}-N-(2-methylphenyl)-3,8-diazabicyclo[3.2.1]octane-8-carboxamide]	2900	220
COc1ccccc1C(=O)N1CC2CCC1CN2Cc1c(-c2ccc(Cl)cc2)nc2ccccn12 (single isomer, unassigned) [Example 44]	130	3.3
CC(C)(C)OC(=O)N1CC2CCC1CN2Cc1c(-c2ccc(Cl)cc2)nc2ccccn12 (single isomer, unassigned) [Example 16, tert-Butyl 5-{[2-(4-chlorophenyl)imidazo[1,2-a]pyridin-3-yl]methyl}-2,5-diazabicyclo[2.2.2]octane-2-carboxylate]	1300	600
O=C(c1cccc(OCC(F)(F)F)n1)N1C2COCC1CN(Cc1c(-c3ccc(Cl)cc3)nc3ccccn13)C2 [Example 77]	810	44
O=C(c1cccc(OC(F)F)n1)N1CC2CCC1CN2Cc1c(-c2ccc(Cl)cn2)nc2ccccn12 (single isomer, unassigned; enantiomer 1) [Example 200, (5-{[2(5-Chloropyridin-2-yl)imidazo[1,2-a]pyridin-3-yl]methyl}-2,5-diazabicyclo[2.2.2]oct-2-yl)[6-(difluoromethoxy)pyridin-2-yl]methanone (enantiomer 1)]	877	75
Cn1ccnc1C(=O)N1CC2CCC1CN2Cc1c(-c2ccc(Cl)cc2)nc2ccccn12 (single isomer, unassigned) [Example 52]	170	10
O=C(C1CCCC1)N1CC2CCC(C1)N2Cc1c(-c2ccc(Br)cc2)nc2ccccn12 [Example 85]	520	53
O=C(Nc1c(F)cccc1F)N1C2CCC1CN(Cc1c(-c3ccc(Cl)cc3)nc3ccccn13)C2 [Example 166, 3-{[2-(4-Chlorophenyl)imidazo[1,2-a]pyridin-3-yl]methyl}-N-(2,6-difluorophenyl)-3,8-diazabicyclo[3.2.1]octane-8-carboxamide]	990	44
Cc1cccc(C(=O)N2CC3CCC2CN3Cc2c(-c3ccc(Cl)cc3)nc3ccccn23)c1 (single isomer, unassigned) [Example 53]	140	34
O=C(N1CCCC1)N1C2COCC1CN(Cc1c(-c3ccc(Cl)cc3)nc3ccccn13)C2 [Example 192, (7-{[2-(4-Chlorophenyl)imidazo[1,2-a]pyridin-3-yl]methyl}-3-oxa-7,9-diazabicyclo[3.3.l]non-9-yl)(pyrrolidin-1-yl)methanone]	870	73
CCN(C(=O)N1C2COCC1CN(Cc1c(-c3ccc(Cl)cc3)nc3ccccn13)C2)C1CCCCC1 [Example 191, 7-{[2-(4-Chlorophenyl)imidazo[1,2-a]pyridin-3-yl]methyl}-N-cyclohexyl-N-ethyl-3-oxa-7,9-diazabicyclo[3.3.1]nonane-9-carboxamide]	9500	190
CC(C)N(C(=O)N1C2CCC1CN(Cc1c(-c3ccc(Cl)cc3)nc3ccccn13)C2)C(C)C [Example 174, 3-{[2-(4-Chlorophenyl)imidazo[1,2-a]pyridin-3-yl]methyl}-N,N-diisopropyl-3,8-diazabicyclo[3.2.1]octane-8-carboxamide]	91	13
O=C(N1CCCC1)N1C2CCC1CN(Cc1c(-c3ccc(Cl)cc3)nc3ccccn13)C2 [Example 176, (3-([2-(4-Chlorophenyl)imidazo[1,2-a]pyridin-3-yl]methyl}-3,8-diazabicyclo[3.2.1]oct-8-yl)(pyrrolidin-1-yl)methanone]	49	10
CC(C)c1ccc(-c2nc3ccccn3c2CN2CC3CCC2CN3C(=O)C2CCCC2)cc1 (single isomer, unassigned) [Example 62]	2800	760

SMILES	IC50 (human TASK-1) [nM]	IC50 (human TASK-3) [nM]
CC(C)NC(=O)N1C2COCC1CN(Cc1c(-c3ccc(Cl)cc3)nc3ccccn13)C2 [Example 168, 7-{[2-(4-Chlorophenyl)imidazo[1,2-a]pyridin-3-yl]methyl}-N-isopropyl-3-oxa-7,9-diazabicyclo[3.3.1]nonane-9-carboxamide]	1400	130
CCN(C(=O)N1C2COCC1CN(Cc1c(-c3ccc(Cl)cc3)nc3ccccn13)C2)c1ccccc1 [Example 193, 7-{[2-(4-Chlorophenyl)imidazo[1,2-a]pyridin-3-yl]methyl}-N-ethyl-N-phenyl-3-oxa-7,9-diazabicyclo[3.3.1]nonane-9-carboxamide]	7100	100
COc1ccc(F)cc1C(=O)N1CC2CCC(C1)N2Cc1c(-c2ccc(Cl)cc2)nc2ccccn12 [Example 89]	827	220
O=C(C1CCOC1)N1C2COCC1CN(Cc1c(-c3ccc(Cl)cc3)nc3ccccn13)C2 (stereo not shown) [Example 78]	1600	65
CCOc1cccc(C(=O)N2C3CC2CN(Cc2c(-c4ccc(Cl)cc4)nc4ccccn24)C3)c1 [Example 122]	1100	120
COc1cccc(C(=O)N2CC3CCC2CN3Cc2c(-c3ccc(Cl)cc3)nc3ccccn23)c1 (single isomer, unassigned) [Example 39]	640	370
O=C(C1CCCC1)N1CC2CCC1CN2Cc1c(-c2ccc(Cl)cc2)nc2ccccn12 (single isomer, unassigned) [Example 38]	790	380
Cc1csc(C(=O)N2C3CCC2CN(Cc2c(-c4ccc(Cl)cc4)nc4ccccn24)C3)n1 [Example 148, (3-{[2-(4-Chlorophenyl)imidazo[1,2-a]pyridin-3-yl]methyl}-3,8-diazabicyclo[3.2.1]oct-8-yl)(4-methyl-1,3-thiazol-2-yl)methanone]	23	2.7
CC(C)c1ccccc1C(=O)N1C2CCC1CN(Cc1c(-c3ccc(Br)cc3)nc3ccccn13)C2 [Example 141, (3-{[2-(4-Bromophenyl)imidazo[1,2-a]pyridin-3-yl]methyl}-3,8-diazabicyclo[3.2.1]oct-8-yl)(2-isopropylphenyl)methanone]	250	59
O=C(c1ccccc1F)N1C2COCC1CN(Cc1c(-c3ccc(Cl)cc3)nc3ccccn13)C2 [Example 69]	870	101
O=C(c1cccc(Cl)c1)N1CC2CCC1CN2Cc1c(-c2ccc(Cl)cc2)nc2ccccn12 (single isomer, unassigned) [Example 49]	740	12
COc1ccc(Cl)c(C(=O)N2C[C@@H]3CC[C@H]2CN3Cc2c(-c3ccc(Cl)cc3)nc3ccccn23)n1 (single isomer, unassigned; enantiomer 1) [Example 22]	170	13
O=C(c1ccccc1F)N1CC2CCC1CN2Cc1c(-c2ccc(Br)cc2)nc2ccccn12 (racemic) [Example 152, (5-{[2-(4-Bromophenyl)imidazo[1,2-a]pyridin-3-yl]methyl}-2,5-diazabicyclo[2.2.2]oct-2-yl)(2-fluorophenyl)methanone]	2900	75
COc1cccc(C(=O)N2CC3CCC2CN3Cc2c(-c3ccc(Cl)cc3)nc3ccccn23)c1 (single isomer, unassigned) [Example 40]	533	104
COc1cccc(C(=O)N2CC3CCC2CN3Cc2c(-c3ccc(C(C)C)cc3)nc3ccccn23)n1 (single isomer, unassigned) [Example 60]	–	610
Cc1cccc(Cl)c1NC(=O)N1C2CCC1CN(Cc1c(-c3ccc(Cl)cc3)nc3ccccn13)C2 [Example 165, N-(2-Chloro-6-methylphenyl)-3-{[2-(4-chlorophenyl)imidazo[1,2-a]pyridin-3-yl]methyl}-3,8-diazabicyclo[3.2.1]octane-8-carboxamide]	25	–
CCOC(=O)N1C2CCC1CN(Cc1c(-c3ccc(Cl)cc3)nc3ccccn13)C2 [Example 185, Ethyl 3-{[2-(4-chlorophenyl)imidazo[1,2-a]pyridin-3-yl]methyl}-3,8-diazabicyclo[3.2.1]octane-8-carboxylate]	120	–
